Test results: US20250243219A1, “MACROCYCLIC COMPOUNDS AND USES THEREOF” (Cypralis Limited, priority 2022, published 2025)

Assays:
[1] = test system: permeabilised HepG2 cells; test: Calcium retention capacity (CRC) assay in permeabilised HepG2 cells (MPTP opening); assay type: cell-based, human; parameters: CRC [10 μM]: unit not given here; details: compound at 10 μM; for CRC [10 μM]: digitonin permeabilised HepG2 cells; for CRC [10 μM] (ratio vs CsA): normalised to cyclosporin A, value in brackets
Description: The use of permeabilised cells means that inhibitory compounds that may not normally enter non-permeabilised cells are more likely to be active.
The calcium retention capacity (CRC) is a measure of the capability of mitochondria to retain calcium, primarily in the form of calcium phosphates, in the mitochondrial matrix.
In a CRC assay, the calcium indicator Calcium Green-5N (InVitrogen) is utilized. […] The assay is carried out in HepG2 (human hepatocellular carcinoma) cells which are digitonin permeabilized. Trains of calcium pulses (typically 5 μM additions) are added which results in a sudden increase in fluorescence which is then reduced by mitochondrial buffering. The cells will reach a point at which the calcium addition is no longer buffered, an indication that the MPTP has opened (mitochondrial permeability transition).
The experiment is performed with and without inhibitor. A compound that acts to inhibit the mitochondrial pore opening will result in a greater requirement for calcium to reach the transition point. The results are normalised to a positive control (cyclosporin A) in each experiment. The results are shown in column 3 of Table 5 as CRC [10 μM] (ratio vs CsA). The method of digitonin permeabilised whole cell CRC assay is similar to that used by Chiara et al. (PLoS One, March, 3, 3, e1852 (2008)).

SH-SY5Y cells = test: Thapsigargin treated cell death assay in SH-SY5Y cells; assay type: cell-based, human; details: compound at 10 μM, positive = protection from cell death, negative = compound toxicity
Source text: Thapsigargin raises intracellular free calcium (Ca^2+) by potently inhibiting the endoplasmic reticulum Ca-ATPase, which sequesters Ca^2+ from the cytosol. The increased cytosolic Ca^2+ concentration is buffered by mitochondria by exchanging Ca^2+ for K, leading to depolarisation in the inner mitochondrial membrane and permeability transition.
The thapsigargin treated Jurkat cell death assay is a homogeneous 96 well plate based assay for cell death, instigated by the opening of the mitochondrial permeability transition pore (MPTP). The addition of thapsigargin to Jurkat cells results in an influx of calcium, the increase in intracellular calcium will initially be buffered by the mitochondria, but eventually the increasing calcium concentration will result in the opening of the MPTP, resulting in cell death.
CellTox™ Green is a dye which is unable to enter the cell until cell death leads to the loss of membrane integrity. Once this happens the CellTox™ Green enters the cell, binds to the cell's DNA and emits a fluorescent signal. […] Unless otherwise stated, the assay is typically run using a range of three compound concentrations of 1, 3 and 10 μM in triplicate and is read kinetically over a period of 24 hours. Compounds are added 30 minutes before the addition of thapsigargin. Compound only controls and positive control, cyclosporin A (CsA) (3 and 10 μM) are also included in the assay. Results are typically calculated at the 8 hour time point and the kinetic data is also reported.
The assay is carried out as described for the Jurkat cells but using the SH-SY5Y (human neuroblastoma) cell line instead of Jurkat cells. The results are shown in the fourth column of Table 5 (SY5Y [10 μM]% recovery). Positive numbers indicate protection from cell death, negative numbers indicate compound toxicity.

cyclophilin D = cyclophilin D (Homo sapiens (Human), UniProt P30405); test: Functional peptidyl prolyl isomerase (PPIase) spectrophotometric assay, cyclophilin D; assay type: biochemical; details: second value of CypA/D cell; read-out: Ki CypD
Sequence of cyclophilin D (P30405 30-207, species assumed): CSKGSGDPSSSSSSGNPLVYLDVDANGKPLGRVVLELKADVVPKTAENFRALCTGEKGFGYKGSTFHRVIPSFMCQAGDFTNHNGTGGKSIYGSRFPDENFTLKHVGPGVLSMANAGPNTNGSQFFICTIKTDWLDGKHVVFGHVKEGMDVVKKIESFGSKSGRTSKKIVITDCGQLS
Source text: (§1) Cyclophilins are enzymes that catalyse the cis-trans isomerisation of peptide bonds to the amino acid proline. This event is important in many biological processes, including protein folding and signal transduction. […] The method to measure this activity and its inhibition is similar to that described by Jankowski (Analytical Biochemistry, 252, 2, 299-307 (1997)). The assay measures the cis to trans isomerisation of a peptide substrate catalysed by a PPlase enzyme using a UV/Vis spectrophotometer. This assay is a manual single cuvette-based assay. A first order rate equation is fitted to the absorbance data to obtain a rate constant. The catalytic rate is calculated from the enzymatic rate minus the background rate. The Ki (the concentration required to produce half maximum inhibition) for an inhibitor is obtained from the rate constant plotted against the inhibitor concentration. Typically, a 6-point dose response curve is obtained from duplicates and a Ki determined. Data are given in Table 5 as Ki [nM] for cyclophilins A and D, expressed in column 2 of Table 5 as Ki (cypA)/Ki (cypD).

cyclophilin A = cyclophilin A (Homo sapiens (Human), UniProt P62937); test: Functional peptidyl prolyl isomerase (PPIase) spectrophotometric assay, cyclophilin A; assay type: biochemical; details: first value of CypA/D cell
Sequence of cyclophilin A (P62937 whole entry, species assumed): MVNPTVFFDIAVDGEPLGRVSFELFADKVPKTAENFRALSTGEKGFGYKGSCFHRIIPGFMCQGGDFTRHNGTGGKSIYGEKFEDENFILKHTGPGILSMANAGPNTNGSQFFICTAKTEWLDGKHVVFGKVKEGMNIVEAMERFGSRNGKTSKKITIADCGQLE
Source text: as §1

Ki (cyclophilin D) [µM] | Ki (cyclophilin A) [µM] | SMILES | CRC [10 μM] [1] | CRC [10 μM] (ratio vs CsA) [1] | SYSY [10 μM] % recovery (SH-SY5Y cells) [%] | also measured
0.45 | – | C[C@@H]1NC(=O)[C@@H](CC2CCCNC2)OC(=O)C(C)(C)/C=C/c2ccc3ccc(nc3c2)N(C)NC(=O)[C@@H]2CCCN(N2)C1=O (single isomer, unassigned) [Compound (30)] | 10 | 0.33 | – | SYSY [10 μM] % recovery (SH-SY5Y cells; listed as 30): 10%
0.18 | 0.79 | C[C@@H]1NC(=O)[C@@H](CC2CCCNC2)OC(=O)C(C)(C)/C=C/c2ccc3ccc(nc3c2)N(C)NC(=O)[C@@H]2CCCN(N2)C1=O (single isomer, unassigned) [Compound (31)] | 10 | 0.33 | – | SYSY [10 μM] % recovery (SH-SY5Y cells; listed as 31): 12%
3.8 | 0.28 | C[C@@H]1NC(=O)[C@@H](CC2CCCNC2)OC(=O)C(C)(C)/C=C/c2ccc3ccc(nc3c2)N(C)N(C)C(=O)[C@@H]2CCCN(N2)C1=O (single isomer, unassigned) [Compound (33)] | 5 | – | 9 | CRC [10 μM] (ratio vs CsA) ([1]; listed as 33): 0.2
0.19 | 0.16 | CNC(=O)c1ccc(CC2OC(=O)C(C)(C)/C=C/c3ccc4ccc(nc4c3)N(C)NC(=O)[C@@H]3CCCN(N3)C(=O)[C@H](C)NC2=O)cc1 (single isomer, unassigned) [Compound (38)] | – | – | – | CRC [10 μM] ([1]; listed as 38): 7.5; CRC [10 μM] (ratio vs CsA) ([1]; listed as 38): 0.33; SYSY [10 μM] % recovery (SH-SY5Y cells; listed as 38): 8%
0.036 | 0.03 | CNC(=O)c1ccc(CC2OC(=O)C(C)(C)/C=C/c3ccc4ccc(nc4c3)N(C)NC(=O)[C@@H]3CCCN(N3)C(=O)[C@H](C)NC2=O)cc1 (single isomer, unassigned) [Compound (39)] | – | – | – | CRC [10 μM] ([1]; listed as 39): 15; CRC [10 μM] (ratio vs CsA) ([1]; listed as 39): 0.67; SYSY [10 μM] % recovery (SH-SY5Y cells; listed as 39): 0%
– | – | C[C@@H]1NC(=O)C(Cc2ccc(C(=O)O)cc2)OC(=O)C(C)(C)/C=C/c2ccc3ccc(nc3c2)N(C)NC(=O)[C@@H]2CCCN(N2)C1=O (single isomer, unassigned) [Compound (40)] | – | – | – | CRC [10 μM] ([1]; listed as 40): 5; CRC [10 μM] (ratio vs CsA) ([1]; listed as 40): 0.33; SYSY [10 μM] % recovery (SH-SY5Y cells; listed as 40): 51%
0.22 | 0.03 | C[C@@H]1NC(=O)C(Cc2ccc(C(=O)O)cc2)OC(=O)C(C)(C)/C=C/c2ccc3ccc(nc3c2)N(C)NC(=O)[C@@H]2CCCN(N2)C1=O (single isomer, unassigned) [Compound (41)] | – | – | – | CRC [10 μM] ([1]; listed as 41): 10; CRC [10 μM] (ratio vs CsA) ([1]; listed as 41): 0.67; SYSY [10 μM] % recovery (SH-SY5Y cells; listed as 41): 0%
0.054 | 0.025 | CC(C)[C@H]1OC(=O)C/C=C/c2ccc3ccc(nc3c2)N(C)NC(=O)[C@@H]2CCCN(N2)C(=O)[C@H](C)NC1=O (stereo in doubt) [Compound (1)] | 35 | 0.95 | 8.4 | –
0.0043 | 0.0017 | CC(C)[C@@H]1OC(=O)C(C)(C)/C=C/c2ccc3ccc(nc3c2)N(Cc2ccccc2)NC(=O)[C@@H]2CCCN(N2)C(=O)[C@H](C)NC1=O [Compound (9)] | 279.4 | 1 | 87.067 | –
0.049 | 0.24 | CNC(=O)c1ccc(C[C@@H]2OC(=O)C(C)(C)/C=C/c3ccc4ccc(nc4c3)N(C)N(C)C(=O)[C@@H]3CCCN(N3)C(=O)[C@H](C)NC2=O)cc1 [Compound (12)] | 15 | 0.75 | 25 | –
0.011 | 0.0049 | COC[C@@]1(C)/C=C/c2ccc3ccc(nc3c2)N(C)NC(=O)[C@@H]2CCCN(N2)C(=O)[C@H](C)NC(=O)[C@H](C(C)C)OC1=O [Compound (13)] | 35 | 0.95 | 8.4 | –
0.025 | 0.017 | COC[C@]1(C)/C=C/c2ccc3ccc(nc3c2)N(C)NC(=O)[C@@H]2CCCN(N2)C(=O)[C@H](C)NC(=O)[C@H](C(C)C)OC1=O [Compound (14)] | 40 | 1.09 | 9.3 | –
0.014 | 0.0017 | CC(C)[C@@H]1OC(=O)[C@](C)(Cc2ccccc2)/C=C/c2ccc3ccc(nc3c2)N(C)NC(=O)[C@@H]2CCCN(N2)C(=O)[C@H](C)NC1=O [Compound (16)] | 25 | 0.83 | 62 | –
0.009 | 0.0017 | CC(C)[C@@H]1OC(=O)[C@@](C)(Cc2ccccc2)/C=C/c2ccc3ccc(nc3c2)N(C)NC(=O)[C@@H]2CCCN(N2)C(=O)[C@H](C)NC1=O [Compound (17)] | 33.3 | 0.95 | 87.8 | –
0.0061 | 0.0025 | CC(C)[C@@H]1OC(=O)C2(/C=C/c3ccc4ccc(nc4c3)N(C)NC(=O)[C@@H]3CCCN(N3)C(=O)[C@H](C)NC1=O)CCCC2 [Compound (21)] | 32.5 | 0.93 | 33.8 | –
0.027 | 0.013 | CC(C)[C@@H]1NC(=O)C(C)(C)/C=C/c2ccc3ccc(nc3c2)N(C)NC(=O)[C@@H]2CCCN(N2)C(=O)[C@H](C)NC1=O [Compound (22)] | 25 | 0.83 | 4 | –
0.0062 | 0.0175 | CC(C)[C@@H]1CC(=O)C(C)(C)/C=C/c2ccc3ccc(nc3c2)N(C)NC(=O)[C@@H]2CCCN(N2)C(=O)[C@H](C)NC1=O [Compound (25)] | 20 | 0.8 | 26.2 | –
1.1 | 1.1 | C[C@@H]1NC(=O)[C@H](CC2CCCNC2)NC(=O)C(C)(C)/C=C/c2ccc3ccc(nc3c2)N(C)NC(=O)[C@@H]2CCCN(N2)C1=O (some centres unmarked) [Compound (35)] | 10 | 0.41 | 37 | –
1.4 | 0.39 | C[C@@H]1NC(=O)[C@H](C[C@@H]2CCCN(C)C2)OC(=O)C(C)(C)/C=C/c2ccc3ccc(nc3c2)N(C)NC(=O)[C@@H]2CCCN(N2)C1=O [Compound (36)] | 7.5 | 0.42 | 19 | –
